Experiment [1] deals with KPC-3 expressing E. coli (J53 R6206). The experiment is described as follows: Synergistic broth micro-dilution MIC (checkerboard). It counts as cell-based, Escherichia coli. For orientation: Broth dilution looks for growth in wells or tubes with falling amounts of substance.
Experiment [2] deals with KPC-2 producing K. pneumoniae (ATCC BAA-1705). Described as above. The conditions noted are these: ATCC BAA-1705; for MIC: Klebsiella pneumoniae, ATCCBAA1705, no BLI, read-out: MIC of antibiotic alone (no BLI). It is filed as cell-based, Klebsiella pneumoniae.
Experiment [3] deals with KPC-3 expressing E. coli (J53 R6206). Nature of the experiment: microbe, parasite or virus in culture. The conditions noted are these: no BLI; E. coli J53 R6206. It counts as cell-based, Escherichia coli. The protocol:
The β-lactam compound was tested for in vitro antibacterial activities by the broth micro-dilution or agar dilution method as specified in documents published by Clinical and Laboratory Standards Institute (CLSI), USA (formerly NCCLS). Approved standard M7-A7, January 2006, CLSI, Wayne, Pa., USA and M100-S18, January 2008, CLSI, Wayne, Pa., USA.
In agar dilution method briefly, stock solutions of the cephalosporins for veterinary use (e.g. 2 mg/mL) was made in water, 0.1M phosphate buffers or appropriate solvents and the solution was serially two fold diluted. Compound-1 was dissolved in water and Tazobactam (comparator BLI) in 0.1M phosphate buffer, pH 6.0 to get a solution of 1 mg/mL. Cephalosporins were screened in a concentration range of 0.5-32 μg/mL. For combination, Tazobactam or the Compound-1 described herein were tested at a fixed concentration of 4 μg/mL along with the cephalosporins concentration ranging from 0.5 to 32 μg/mL. […] The compound of formula (I) and Tazobactam were also tested individually. The bacterial inoculum was prepared by picking 3 to 5 well isolated bacterial colonies with the same morphological appearance from an 18-24 h old culture and adjusting the turbidity of the saline suspension to 0.5 McFarland turbidity standard equivalent to a bacterial population of ˜1×10^8 CFU per mL of suspension. The suspension was diluted 1:10 in saline to get a bacterial population of ˜1×10^7 CFU/mL as inoculum. This bacterial inoculum was inoculated onto the prepared petri dishes by a multipoint inoculator with each inoculum spot containing ˜1×10^4 CFU of the bacterial strain. The inoculated petri dishes were incubated at 35° C. in an ambient atmosphere for 18-20 h.

Another experiment relates to E. coli Ecoli233 (KPC3). The experiment is described as follows: Synergistic broth micro-dilution MIC. It is filed as cell-based, Escherichia coli.

The record followed here is patent US10201532B2, “Compounds and their use” (ALLECRA THERAPEUTICS GMBH, priority 2010, dated 2019).

Where only a bound is given, the exact number is not on record here.

In the case of `Nc1nc(/C(=N/O)C(=O)N[C@@H]2C(=O)N3C(C(=O)O)=C(/C=C4\CCN([C@@H]5CCNC5)C4=O)CS[C@H]23)ns1` [Ceftobiprole], the “MIC of antibiotic alone (no BLI)” value in experiment [1] is over 32 µg/mL. For the same molecule, in experiment [2], the MIC (in general, the lowest concentration that inhibits growth of the organism) was over 64 µg/mL.

`CC1=C(C(=O)O)N2C(=O)[C@@H](NC(=O)[C@H](N)c3ccc(O)cc3)[C@H]2SC1` [Cefadroxil]: the “MIC of veterinary cephalosporin alone (no BLI)” value in experiment [3] was over 32 µg/mL. Moreover, the MIC in experiment [2] is over 64 µg/mL.

In the case of `NC(=O)c1cc[n+](CC2=C(C(=O)[O-])N3C(=O)[C@@H](NC(=O)Cc4cccs4)[C@H]3SC2)cc1` [Cefalonium], the “MIC of veterinary cephalosporin alone (no BLI)” value in experiment [3] amounted to 32 µg/mL. The minimum inhibitory concentration (MIC) in experiment [2] was over 64 µg/mL.

In the case of `C[C@@H](O)[C@H]1C(=O)N2C(C(=O)O)=C(S[C@@H]3CN[C@H](C(=O)N(C)C)C3)[C@H](C)[C@H]12` [Meropenem], the “MIC of antibiotic alone (no BLI)” value in experiment [1] is 2 to 4 µg/mL. Moreover, the MIC in experiment [2] lay within 32 to 64 µg/mL.

As for `CO/N=C(\C(=O)N[C@@H]1C(=O)N2C(C(=O)[O-])=C(C[n+]3cccc4c3CCCC4)CS[C@H]12)c1csc(N)n1` [Cefquinome], the “MIC of veterinary cephalosporin alone (no BLI)” value in experiment [3] amounted to 16 µg/mL. For the same molecule, the “MIC of antibiotic alone (no BLI)” value in experiment [2] (no BLI) was over 64 µg/mL.

Turning to `CO/N=C(\C(=O)N[C@@H]1C(=O)N2C(C(=O)[O-])=C(C[N+]3(C)CCCC3)CS[C@H]12)c1csc(N)n1` [Cefepime], the “MIC of antibiotic alone (no BLI)” value in experiment [1] was over 16 µg/mL. For the same molecule, the MIC in experiment [2] is over 128 µg/mL.

Take `CC(C)(C)OC(=O)C[n+]1ccn(C[C@@]2(C)[C@H](C(=O)O)N3C(=O)C[C@H]3S2(=O)=O)n1` [Compound-6, 1-{[(2S,3S,5R)-2-Carboxy-3-methyl-4,4,7-trioxo-4-thia-1-azabicyclo[3.2.0]hept-3-yl]methyl}-3-(2-t-butoxy-2-oxoethyl)-1H-1,2,3-triazol-3-ium]: the “MIC of BLI alone” value in experiment [1] and in experiment [2] was over 16 µg/mL throughout. The “MIC of Imipenem in combination with BLI” value stood at 1 µg/mL in experiment [1] (BLI at 4 μg/mL), 0.5 µg/mL in experiment [1] (BLI at 16 μg/mL), 8 µg/mL in experiment [2] (BLI at 4 μg/mL) and 8 µg/mL in experiment [2] (BLI at 16 μg/mL). Further, the “MIC of Meropenem in combination with BLI” value is 0.5 µg/mL in experiment [1] (BLI at 4 μg/mL), under 0.125 µg/mL in experiment [1] (BLI at 16 μg/mL), 16 µg/mL in experiment [2] (BLI at 4 μg/mL) and 4 µg/mL in experiment [2] (BLI at 16 μg/mL).

Turning to `CO/N=C(\C(=O)N[C@@H]1C(=O)N2C(C(=O)O)=C(CSC(=O)c3ccco3)CS[C@H]12)c1csc(N)n1` [Ceftiofur], in experiment [3], the “MIC of veterinary cephalosporin alone (no BLI)” value came out at 16 µg/mL. In addition, the MIC in experiment [2] was over 64 µg/mL.

In the case of `C[C@@H](O)[C@H]1C(=O)N2C(C(=O)O)=C(S[C@@H]3CN[C@H](C(=O)Nc4cccc(C(=O)O)c4)C3)[C@H](C)[C@H]12` [Ertapenem], the MIC in experiment [2] is over 64 µg/mL.

Take `CC[n+]1ccn(C[C@@]2(C)[C@H](C(=O)O)N3C(=O)C[C@H]3S2(=O)=O)n1` [Compound-2, 1-{[(2S,3S,5R)-2-Carboxy-3-methyl-4,4,7-trioxo-4-thia-1-azabicyclo[3.2.0]hept-3-yl]methyl}-3-ethyl-1H-1,2,3-triazol-3-ium]: the “MIC of BLI alone” value in experiment [1] and in experiment [2] was over 16 µg/mL throughout. Besides, the “MIC of Imipenem in combination with BLI” value came out at 0.5 µg/mL in experiment [1] (BLI at 4 μg/mL), 0.25 µg/mL in experiment [1] (BLI at 16 μg/mL), 4 µg/mL in experiment [2] (BLI at 4 μg/mL) and 1 µg/mL in experiment [2] (BLI at 16 μg/mL). Besides, the “MIC of Meropenem in combination with BLI” value was under 0.125 µg/mL in experiment [1] (BLI at 4 μg/mL), under 0.125 µg/mL in experiment [1] (BLI at 16 μg/mL), 8 µg/mL in experiment [2] (BLI at 4 μg/mL) and 2 µg/mL in experiment [2] (BLI at 16 μg/mL).

`CO/N=C(\C(=O)N[C@@H]1C(=O)N2C(C(=O)O)=C(COC(C)=O)CS[C@H]12)c1csc(N)n1` [Cefotaxime]: the “MIC of antibiotic alone (no BLI)” value in experiment [1] was over 32 µg/mL. The MIC in experiment [2] is over 128 µg/mL.

With `CCOC(=O)CNC(=O)C[n+]1ccn(C[C@@]2(C)[C@H](C(=O)O)N3C(=O)C[C@H]3S2(=O)=O)n1` [Compound-8, 1-{[(2S,3S,5R)-2-Carboxy-3-methyl-4,4,7-trioxo-4-thia-1-azabicyclo[3.2.0]hept-3-yl]methyl}-3-{2[(2-ethoxy-2-oxoethyl)amino]-2-oxoethyl}-1H-1,2,3-triazol-3-ium], the “MIC of BLI alone” value in experiment [1] and in experiment [2] was over 16 µg/mL each time. Also, the “MIC of Imipenem in combination with BLI” value was 1 µg/mL in experiment [1] (BLI at 4 μg/mL), 0.25 µg/mL in experiment [1] (BLI at 16 μg/mL), 8 µg/mL in experiment [2] (BLI at 4 μg/mL) and 4 µg/mL in experiment [2] (BLI at 16 μg/mL). In addition, the “MIC of Meropenem in combination with BLI” value in experiment [1] (BLI at 4 μg/mL) is 0.25 µg/mL; in experiment [1] (BLI at 16 μg/mL), under 0.125 µg/mL; in experiment [2] (BLI at 4 μg/mL) it was 8 µg/mL; in experiment [2] (BLI at 16 μg/mL), 4 µg/mL.

Turning to `C[C@@H](O)[C@H]1C(=O)N2C(C(=O)O)=C([C@H]3CCCO3)S[C@H]12` [Faropenem], the MIC in experiment [2] is over 64 µg/mL.

`C[C@]1(Cn2cc[n+](CC(N)=O)n2)[C@H](C(=O)O)N2C(=O)C[C@H]2S1(=O)=O` [Compound-5, 1-{[(2S,3S,5R)-2-Carboxy-3-methyl-4,4,7-trioxo-4-thia-1-azabicyclo[3.2.0]hept-3-yl]methyl}-3-(2-amino-2-oxoethyl)-1H-1,2,3-triazol-3-ium]: the “MIC of BLI alone” value in experiment [1] and in experiment [2] was over 16 µg/mL in each case. Moreover, the “MIC of Imipenem in combination with BLI” value in experiment [1] (BLI at 4 μg/mL) was 0.5 µg/mL; in experiment [1] (BLI at 16 μg/mL), 0.25 µg/mL; in experiment [2] (BLI at 4 μg/mL), 8 µg/mL; in experiment [2] (BLI at 16 μg/mL), 1 µg/mL. Further, the “MIC of Meropenem in combination with BLI” value in experiment [1] (BLI at 4 μg/mL) was under 0.125 µg/mL; in experiment [1] (BLI at 16 μg/mL), under 0.125 µg/mL; in experiment [2] (BLI at 4 μg/mL), 8 µg/mL; in experiment [2] (BLI at 16 μg/mL) it was 2 µg/mL.

Turning to `Cc1cn(C[C@@]2(C)[C@H](C(=O)[O-])N3C(=O)C[C@H]3S2(=O)=O)c[n+]1C` [Compound-13, (2S,3S,5R)-3-Methyl-3-(4-methyl-3-methyl-imidazol-3-ium-1-ylmethyl)-4,4,7-trioxo-4-thia-1-aza-bicyclo[3.2.0]heptane-2-carboxylate], the “MIC of Imipenem in combination with BLI” value with E. coli Ecoli233 (KPC3) (BLI at 4 μg/mL) was 8 µg/mL; in the experiment with E. coli Ecoli233 (KPC3) (BLI at 16 μg/mL), 1 µg/mL; in experiment [2] (BLI at 4 μg/mL), 2 µg/mL; in experiment [2] (BLI at 16 μg/mL), 2 µg/mL.

In the case of `C=CC[n+]1ccn(C[C@@]2(C)[C@H](C(=O)O)N3C(=O)C[C@H]3S2(=O)=O)n1` [Compound-4, 1-{[(2S,3S,5R)-2-Carboxy-3-methyl-4,4,7-trioxo-4-thia-1-azabicyclo[3.2.0]hept-3-yl]methyl}-3-allyl-1H-1,2,3-triazol-3-ium], the “MIC of BLI alone” value in experiment [1] and in experiment [2] was over 16 µg/mL throughout. The “MIC of Imipenem in combination with BLI” value in experiment [1] (BLI at 4 μg/mL) worked out at 0.5 µg/mL; in experiment [1] (BLI at 16 μg/mL), 0.25 µg/mL; in experiment [2] (BLI at 4 μg/mL), 4 µg/mL; in experiment [2] (BLI at 16 μg/mL), 1 µg/mL. For the same molecule, the “MIC of Meropenem in combination with BLI” value was under 0.125 µg/mL in experiment [1] (BLI at 4 μg/mL), under 0.125 µg/mL in experiment [1] (BLI at 16 μg/mL), 8 µg/mL in experiment [2] (BLI at 4 μg/mL) and 4 µg/mL in experiment [2] (BLI at 16 μg/mL).
